How the values were obtained:
[1] = tested on: IFN-gamma-secreting T-cells; experiment: Activated T-cells, IFN-gamma-secreting T-cells in splenocytes, TKI started after immunization; assay type: in vivo, C57Bl6 mice; conditions: 200 mg/kg daily oral gavage from Day 15, post immunotherapy (Days 3 and 17); spleens Day 31
Text: (§1) Mice were sacrificed on Day 31 and the spleens were removed and evaluated for induction of a primary T-cell response by quantifying the number of IFN-gamma-secreting T-cells per 5×10^5 splenocytes when stimulated using an ovalbumin-specific peptide.
as §1

Pyk2 = biological target: T1, Pyk2 (Homo sapiens, UniProt Q14289); experiment: Western blot of phosphorylated Pyk2 in stimulated Jurkat cells; assay type: cell-based; conditions: anti-CD3 10 minutes, increasing concentrations 0, 12.5, 50 mcg/ml
T1 construct: Nutrients-starved human T cell clones (Jurkat cells) were stimulated; endogenous in cells; host or cells: Jurkat cells (human T cell line)
T1 sequence (Q14289 whole entry): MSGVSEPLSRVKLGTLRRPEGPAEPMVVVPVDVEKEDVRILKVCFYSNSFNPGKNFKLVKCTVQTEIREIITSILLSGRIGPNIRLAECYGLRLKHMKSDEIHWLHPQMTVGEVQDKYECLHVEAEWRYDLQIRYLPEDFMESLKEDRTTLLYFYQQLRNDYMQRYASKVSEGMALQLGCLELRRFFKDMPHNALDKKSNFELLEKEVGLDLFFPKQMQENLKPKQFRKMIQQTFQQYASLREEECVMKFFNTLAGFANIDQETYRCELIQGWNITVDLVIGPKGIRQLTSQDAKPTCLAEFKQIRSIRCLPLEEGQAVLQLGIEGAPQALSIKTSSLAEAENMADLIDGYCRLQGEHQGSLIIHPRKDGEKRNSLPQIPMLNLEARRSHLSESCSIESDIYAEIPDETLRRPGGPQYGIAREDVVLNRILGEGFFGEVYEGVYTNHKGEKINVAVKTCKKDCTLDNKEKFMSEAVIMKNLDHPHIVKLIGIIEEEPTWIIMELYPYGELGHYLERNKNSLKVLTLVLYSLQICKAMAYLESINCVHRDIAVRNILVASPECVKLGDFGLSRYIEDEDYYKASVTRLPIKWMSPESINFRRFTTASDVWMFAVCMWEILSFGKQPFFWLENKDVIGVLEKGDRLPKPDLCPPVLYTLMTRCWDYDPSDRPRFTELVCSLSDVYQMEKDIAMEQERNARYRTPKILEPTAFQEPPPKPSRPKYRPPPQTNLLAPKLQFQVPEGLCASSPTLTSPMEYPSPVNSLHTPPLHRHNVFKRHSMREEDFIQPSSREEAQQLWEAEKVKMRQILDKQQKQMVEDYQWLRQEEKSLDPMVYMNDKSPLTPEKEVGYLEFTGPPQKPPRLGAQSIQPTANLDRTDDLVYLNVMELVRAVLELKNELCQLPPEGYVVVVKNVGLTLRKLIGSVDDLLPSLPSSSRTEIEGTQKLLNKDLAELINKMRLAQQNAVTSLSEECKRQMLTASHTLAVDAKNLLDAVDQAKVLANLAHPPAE

Zap-70 = biological target: T2, Zap-70 (Homo sapiens, UniProt P43403); conditions: Jurkat cells, anti-CD3 10 minutes, increasing concentrations 0, 12.5, 50 mcg/ml
T2 sequence (P43403 1-619): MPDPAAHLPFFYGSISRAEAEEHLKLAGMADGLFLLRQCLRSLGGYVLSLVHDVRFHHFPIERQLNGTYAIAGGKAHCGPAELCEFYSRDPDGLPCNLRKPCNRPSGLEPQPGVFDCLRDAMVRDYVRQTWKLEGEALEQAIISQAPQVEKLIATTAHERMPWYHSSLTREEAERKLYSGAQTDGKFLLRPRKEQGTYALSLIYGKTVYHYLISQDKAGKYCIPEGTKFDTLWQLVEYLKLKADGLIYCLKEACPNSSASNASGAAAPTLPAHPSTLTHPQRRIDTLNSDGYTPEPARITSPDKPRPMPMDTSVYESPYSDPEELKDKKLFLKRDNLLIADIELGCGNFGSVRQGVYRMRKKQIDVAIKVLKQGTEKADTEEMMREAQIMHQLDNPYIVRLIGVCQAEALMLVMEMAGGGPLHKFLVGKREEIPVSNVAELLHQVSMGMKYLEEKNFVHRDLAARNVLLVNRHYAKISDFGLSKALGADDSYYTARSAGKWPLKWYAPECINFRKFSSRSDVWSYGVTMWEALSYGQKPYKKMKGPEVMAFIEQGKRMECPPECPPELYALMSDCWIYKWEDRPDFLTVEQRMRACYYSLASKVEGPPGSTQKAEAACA

[2] = tested on: ovalbumin-specific CD8 T cells; experiment: Expansion of adoptively transferred OT-1 transgenic T cells, tetramer/CD8 FACs; conditions: 200 mg/kg daily oral gavage from Day-7 for 20 days plus GM.ova on day 3; Day 9; relative to immunotherapy alone
[3] = tested on: IFN-gamma-secreting T-cells; experiment: Naïve T-cell priming, IFN-gamma-secreting T-cells in splenocytes, TKI started before immunization; conditions: 200 mg/kg daily oral gavage prior to and/or concurrently with cytokine-expressing cancer immunotherapy; ovalbumin-specific peptide stimulation

| SMILES | number of ova-antigen activated T-cells (IFN-gamma-secreting T-cells per 5×10^5 splenocytes) [1] | amount of phosphorylated Pyk2 (Pyk2) | amount of phosphorylated Zap-70 (Zap-70) | absolute number of ovalbumin-specific CD8 T cells in spleen and lymph nodes [2] | number of primed naïve T-cells (IFN-gamma-secreting T-cells per 5×10^5 splenocytes) [3] |
| --- | --- | --- | --- | --- | --- |
| COc1cc2ncnc(Nc3ccc(F)c(Cl)c3)c2cc1OCCCN1CCOCC1 [genfitinib] | slight increase | decreased | decreased | increased | decrease |
| C#Cc1cccc(Nc2ncnc3cc(OCCOC)c(OCCOC)cc23)c1 [erolotinib, N-(3-ethynylphenyl)-6,7-bis(2-methoxy)-4-quinazolinamine] | slight increase | decreased |  | increased | decrease |
